Reference: article PMC10796436, “Peptidyl nitroalkene inhibitors of main protease rationalized by computational and crystallographic investigations as antivirals against SARS-CoV-2” (Communications Chemistry, 2024)
Several values for one entry are separate records, joined by “and”; a condition that tells them apart may be missing. Equal entries are not always repeated.

Key:
cathepsin L (CatL) = target: T1, cathepsin L (CatL) (Homo sapiens, UniProt P07711); experiment: Cathepsin L inhibition, fluorometric assay; format: biochemical; conditions: read-out: Ki CatL
T1 construct: purchased Calbiochem (Merck Millipore)

[1] = target: Zika Virus NS2B/NS3 (bZiPro) (Zika virus, UniProt A0A024B7W1); experiment: Zika virus protease inhibition, fluorometric assay; format: biochemical; conditions: 20 μM
[2] = target: human matriptase (MT-SP1) (Homo sapiens, UniProt Q9Y5Y6); experiment: Matriptase inhibition, fluorometric assay; format: biochemical; conditions: 20 μM
SARS-CoV-2 = experiment: microbe, parasite or virus in culture; format: cell-based; conditions: for virus titer Mean (%): mean of Exp.1-3
M^pro = M^pro (Severe acute respiratory syndrome coronavirus 2, UniProt P0DTD1); experiment: biochemical; format: binding
SARS-CoV-2 M^pro [3] = target: T2, SARS-CoV-2 M^pro (Severe acute respiratory syndrome coronavirus 2, UniProt P0DTD1); experiment: biochemical; conditions: M^pro from pMal-M^pro vector
SARS-CoV-2 M^pro [4] = target: T2, SARS-CoV-2 M^pro; experiment: Mpro FRET inhibition, continuous fluorometric assay (Fluorolog-3), enzyme from pET21-M^pro vector; format: biochemical; conditions: read-out: Ki (μM)^b

T1 sequence (P07711 114-288 limits assumed): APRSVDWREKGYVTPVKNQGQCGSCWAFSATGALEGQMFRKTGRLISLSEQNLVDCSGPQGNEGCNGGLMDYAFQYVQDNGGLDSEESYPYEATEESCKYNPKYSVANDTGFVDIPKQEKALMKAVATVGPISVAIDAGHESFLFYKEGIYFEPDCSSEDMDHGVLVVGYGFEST
T1 sequence (P07711 292-333 limits assumed): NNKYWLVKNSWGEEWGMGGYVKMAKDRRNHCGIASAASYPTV
Sequence of human matriptase (MT-SP1) (Q9Y5Y6 615-855 limits assumed, other chains not shown): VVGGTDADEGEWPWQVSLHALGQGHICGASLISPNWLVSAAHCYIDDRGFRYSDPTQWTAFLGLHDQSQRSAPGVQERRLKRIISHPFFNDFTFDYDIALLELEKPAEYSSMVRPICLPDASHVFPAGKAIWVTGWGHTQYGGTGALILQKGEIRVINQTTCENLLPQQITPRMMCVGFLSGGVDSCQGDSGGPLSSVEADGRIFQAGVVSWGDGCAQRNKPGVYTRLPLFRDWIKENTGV
Sequence of Zika Virus NS2B/NS3 (bZiPro) (A0A024B7W1 1425-1464): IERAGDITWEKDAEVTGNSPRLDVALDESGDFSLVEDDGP
Sequence of Zika Virus NS2B/NS3 (bZiPro) (A0A024B7W1 1503-1680): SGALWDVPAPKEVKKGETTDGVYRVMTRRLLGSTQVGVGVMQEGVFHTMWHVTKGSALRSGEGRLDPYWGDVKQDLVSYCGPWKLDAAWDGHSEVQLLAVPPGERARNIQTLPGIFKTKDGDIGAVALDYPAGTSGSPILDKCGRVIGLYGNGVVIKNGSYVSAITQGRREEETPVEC

In the case of COc1cccc2[nH]c(C(=O)N[C@@H](CC(C)C)C(=O)N[C@H](/C=C/[N+](=O)[O-])C[C@@H]3CCNC3=O)cc12 [FGA146], the Ki (cathepsin L (CatL)) is reported as 868 ± 60 nM, the bZiPro [1] is reported as “n.i. (no inhibition (<10%) was observed at a concentration of 20 μM)” and the MT-SP1 [2] is reported as “n.i. (no inhibition (<10%) was observed at a concentration of 20 μM)”. For the same molecule, the EC50 (SARS-CoV-2; Huh-7-ACE2, 24h p.t., […]) was 900 nM, the “virus titer Mean (%)” value (SARS-CoV-2; conc 0.1) was 133.333% and the “virus titer Mean (%)” value (SARS-CoV-2; conc 0.5) was 86.6667%. The “virus titer (%) of conc 0” value (SARS-CoV-2; conc 0.5, single experiments) was 100% and 60%, the “virus titer (pfu/ml)” value (SARS-CoV-2; conc 0.5, single experiments) was 1000000 pfu/ml and 1200000 pfu/ml and the “virus titer Mean (%)” value (SARS-CoV-2; conc 1) was 22.5%. The “virus titer Mean (%)” value (SARS-CoV-2; conc 5) was 0.1667%, the “virus titer (%) of conc 0” value (SARS-CoV-2; conc 5, single experiments) was 0.4% and 0.04% and 0.06% and the “virus titer Mean (%)” value (SARS-CoV-2; conc 10) was 0.1023%. For the same molecule, the “virus titer (%) of conc 0” value (SARS-CoV-2; conc 10, single experiments) was 0.12% and 0.18% and 0.007%, the “virus titer Mean (%)” value (SARS-CoV-2; conc 50) was 0.02533% and the “virus titer (%) of conc 0” value (SARS-CoV-2; conc 50, single experiments) was 0.06% and 0.014% and 0.002%. The “virus titer Mean (%)” value (SARS-CoV-2; conc 100) was 0.02033%, the “virus titer (%) of conc 0” value (SARS-CoV-2; conc 100, single experiments) was 0.04% and 0.018% and 0.003% and the “Tm of M^pro” value (M^pro) was 45.0 ± 0.2 °C and 42.8 ± 0.1 °C. The “DTm (°C)” value (M^pro; 25 mM) was -4.2 °C, the Fraction unfolded (M^pro; 25 mM, 21.5 °C) was -0.01003 and the Fraction unfolded (M^pro; 25 mM, 22 °C) was -0.02886. For the same molecule, the Fraction unfolded (M^pro; 25 mM, 22.5 °C) was -0.03599, the Fraction unfolded (M^pro; 25 mM, 23 °C) was -0.01149 and the Fraction unfolded (M^pro; 25 mM, 23.5 °C) was 0.01389. The Fraction unfolded (M^pro; 25 mM, 24 °C) was 0.08488, the Fraction unfolded (M^pro; 25 mM, 24.5 °C) was 0.03781 and the Fraction unfolded (M^pro; 25 mM, 25 °C) was -0.07553. For the same molecule, the Fraction unfolded (M^pro; 25 mM, 25.5 °C) was 0.01064, the Fraction unfolded (M^pro; 25 mM, 26 °C) was 0.08908 and the Fraction unfolded (M^pro; 25 mM, 26.5 °C) was 0.04267. For the same molecule, the Fraction unfolded (M^pro; 25 mM, 27 °C) was -0.01602, the Fraction unfolded (M^pro; 25 mM, 27.5 °C) was 0.0059 and the Fraction unfolded (M^pro; 25 mM, 28 °C) was -0.0719. For the same molecule, the Fraction unfolded (M^pro; 25 mM, 28.5 °C) was 0.01153, the Fraction unfolded (M^pro; 25 mM, 29 °C) was -0.09309 and the Fraction unfolded (M^pro; 25 mM, 29.5 °C) was -0.02786. For the same molecule, the Fraction unfolded (M^pro; 25 mM, 30 °C) was -0.01911, the Fraction unfolded (M^pro; 25 mM, 30.5 °C) was 0.07168 and the Fraction unfolded (M^pro; 25 mM, 31 °C) was 0.0139. It also gave a Fraction unfolded (M^pro; 25 mM, 32 °C) of -0.02402, a Fraction unfolded (M^pro; 25 mM, 32.5 °C) of 0.02054 and a Fraction unfolded (M^pro; 25 mM, 66.5 °C) of 0.9674. It also gave a Fraction unfolded (M^pro; 25 mM, 67 °C) of 1.009, a Fraction unfolded (M^pro; 25 mM, 67.5 °C) of 1.012 and a Fraction unfolded (M^pro; 25 mM, 68 °C) of 1.038. It also gave a Fraction unfolded (M^pro; 25 mM, 68.5 °C) of 1.026, a Fraction unfolded (M^pro; 25 mM, 69 °C) of 1.004 and a Fraction unfolded (M^pro; 25 mM, 69.5 °C) of 1.031. It also gave a Fraction unfolded (M^pro; 25 mM, 70 °C) of 1.005, a Fraction unfolded (M^pro; 25 mM, 70.5 °C) of 0.9826 and a Fraction unfolded (M^pro; 25 mM, 71 °C) of 1.014. For the same molecule, the Fraction unfolded (M^pro; 25 mM, 71.5 °C) was 1.05, the Fraction unfolded (M^pro; 25 mM, 72 °C) was 1.03 and the Fraction unfolded (M^pro; 25 mM, 72.5 °C) was 1.006. It also gave a Fraction unfolded (M^pro; 25 mM, 73 °C) of 1.029, a Fraction unfolded (M^pro; 25 mM, 73.5 °C) of 0.9779 and a Fraction unfolded (M^pro; 25 mM, 74 °C) of 1.013. It also gave a Fraction unfolded (M^pro; 25 mM, 74.5 °C) of 1.064, a Fraction unfolded (M^pro; 25 mM, 75 °C) of 1.029 and a Fraction unfolded (M^pro; 25 mM, 75.5 °C) of 1.031. The Fraction unfolded (M^pro; 25 mM, 76 °C) was 1.031, the Fraction unfolded (M^pro; 25 mM, 76.5 °C) was 0.9806 and the Fraction unfolded (M^pro; 25 mM, 77 °C) was 1.015. It also gave a Fraction unfolded (M^pro; 25 mM, 77.5 °C) of 1.011, a Fraction unfolded (M^pro; 25 mM, 78 °C) of 1.0092 and a Fraction unfolded (M^pro; 25 mM, 78.5 °C) of 1.012. It also gave a Fraction unfolded (M^pro; 25 mM, 79 °C) of 1.059, a Fraction unfolded (M^pro; 25 mM, 79.5 °C) of 0.9461 and a Fraction unfolded (M^pro; 25 mM, 80 °C) of 1.0063. The “DTm (°C)” value (M^pro; 100 mM) was -6.4 °C, the Fraction unfolded (M^pro; 100 mM, 21.5 °C) was -0.0719 and the Fraction unfolded (M^pro; 100 mM, 22 °C) was 0.01153. It also gave a Fraction unfolded (M^pro; 100 mM, 22.5 °C) of -0.09309, a Fraction unfolded (M^pro; 100 mM, 23 °C) of -0.02786 and a Fraction unfolded (M^pro; 100 mM, 23.5 °C) of -0.01911. The Fraction unfolded (M^pro; 100 mM, 24 °C) was 0.07168, the Fraction unfolded (M^pro; 100 mM, 24.5 °C) was 0.0139 and the Fraction unfolded (M^pro; 100 mM, 25 °C) was 0.01178. For the same molecule, the Fraction unfolded (M^pro; 100 mM, 25.5 °C) was -0.02402, the Fraction unfolded (M^pro; 100 mM, 26 °C) was 0.02054 and the Fraction unfolded (M^pro; 100 mM, 26.5 °C) was 0.0786. It also gave a Fraction unfolded (M^pro; 100 mM, 27 °C) of -0.05017, a Fraction unfolded (M^pro; 100 mM, 27.5 °C) of -0.00904 and a Fraction unfolded (M^pro; 100 mM, 28 °C) of -0.01003. The Fraction unfolded (M^pro; 100 mM, 28.5 °C) was -0.02886, the Fraction unfolded (M^pro; 100 mM, 29 °C) was -0.03599 and the Fraction unfolded (M^pro; 100 mM, 29.5 °C) was -0.01149. The Fraction unfolded (M^pro; 100 mM, 30 °C) was 0.01389, the Fraction unfolded (M^pro; 100 mM, 30.5 °C) was 0.08488 and the Fraction unfolded (M^pro; 100 mM, 31 °C) was 0.03781. It also gave a Fraction unfolded (M^pro; 100 mM, 32 °C) of 0.01064, a Fraction unfolded (M^pro; 100 mM, 32.5 °C) of 0.08908 and a Fraction unfolded (M^pro; 100 mM, 66.5 °C) of 1.038. It also gave a Fraction unfolded (M^pro; 100 mM, 67 °C) of 1.026, a Fraction unfolded (M^pro; 100 mM, 67.5 °C) of 1.004 and a Fraction unfolded (M^pro; 100 mM, 68 °C) of 1.031. The Fraction unfolded (M^pro; 100 mM, 68.5 °C) was 1.005, the Fraction unfolded (M^pro; 100 mM, 69 °C) was 0.9826 and the Fraction unfolded (M^pro; 100 mM, 69.5 °C) was 1.014. It also gave a Fraction unfolded (M^pro; 100 mM, 70 °C) of 1.04, a Fraction unfolded (M^pro; 100 mM, 70.5 °C) of 0.9664 and a Fraction unfolded (M^pro; 100 mM, 71 °C) of 0.9851. It also gave a Fraction unfolded (M^pro; 100 mM, 71.5 °C) of 0.9877, a Fraction unfolded (M^pro; 100 mM, 72 °C) of 0.9881 and a Fraction unfolded (M^pro; 100 mM, 72.5 °C) of 1.095. It also gave a Fraction unfolded (M^pro; 100 mM, 73 °C) of 0.9972, a Fraction unfolded (M^pro; 100 mM, 73.5 °C) of 1.057 and a Fraction unfolded (M^pro; 100 mM, 74 °C) of 0.8905. For the same molecule, the Fraction unfolded (M^pro; 100 mM, 74.5 °C) was 1.0309, the Fraction unfolded (M^pro; 100 mM, 75 °C) was 0.9492 and the Fraction unfolded (M^pro; 100 mM, 75.5 °C) was 0.9161. The Fraction unfolded (M^pro; 100 mM, 76 °C) was 1.007, the Fraction unfolded (M^pro; 100 mM, 76.5 °C) was 1.02 and the Fraction unfolded (M^pro; 100 mM, 77 °C) was 1.017. For the same molecule, the Fraction unfolded (M^pro; 100 mM, 77.5 °C) was 1.029, the Fraction unfolded (M^pro; 100 mM, 78 °C) was 1.021 and the Fraction unfolded (M^pro; 100 mM, 78.5 °C) was 1.059. For the same molecule, the Fraction unfolded (M^pro; 100 mM, 79 °C) was 0.9805, the Fraction unfolded (M^pro; 100 mM, 79.5 °C) was 0.9855 and the Fraction unfolded (M^pro; 100 mM, 80 °C) was 1.001. For the same molecule, the Ki (SARS-CoV-2 M^pro [3]) was 2.19 ± 0.18 µM and the Ki (SARS-CoV-2 M^pro [4]) was 0.96 ± 0.06 µM.
